Measured values reported in ChEMBL document CHEMBL1201862, “PubChem BioAssay data set” (2004).
Active and inactive are the calls of the source.

Experiments:
[1] = nonselective StAR promoter luciferase inhibitors – cell-based, luminescence, luciferase reporter, counter-screen for LRH-1 inverse agonist project, dose response (AID 651969); format: functional
[2] = target: Nuclear receptor subfamily 5 group A member 2 (Homo sapiens, UniProt O00482); format: functional, cell-based;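 further: HEK293T cells transfected with LRH-1 and a StAR promoter luciferase reporter; potency for inhibitors that lower LRH-1 driven reporter light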
[3] = target: Steroidogenic factor 1 (Homo sapiens, UniProt Q13285); assay: Counterscreen for inverse agonists of the liver receptor homolog-1 (LRH-1; NR5A2): Luminescence-based cell-based high throughput dose response assay to identify inverse agonists of the Steroidogenic Factor 1 Nuclear Receptor (SF1; NR5A1).; format: functional
[4] = non-specific 3'UTR reporter inhibition in Clone20-Shn3RL – cell-based, Renilla luciferase, cherry-picked, counter-screen for Shn3 inhibitor project, dose response (AID 624133); format: functional
[5] = tested on: INS1; assay: INS-1E survival protection against cytokine death – cell-based, luminescence, retest, dose response (AID 449756); format: functional; conditions: Rattus norvegicus;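 further: cell death triggered by IL-1 beta plus TNF-alpha plus IFN-gamma mixture; protective hits raise ATP signal compared with cytokine alone wells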
[6] = target: Protein Wnt-3a (Mus musculus, UniProt P27467); assay: antagonism of Wnt3a pathway luciferase reporter – Wnt-LIGHT cells, luminescence, selectivity assay for Gli-SUFU antagonist project, dose response (AID 651570); format: functional; conditions: read-out: IC50_Mean;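 further: Wnt-LIGHT reporter cells stimulated with conditioned medium from Wnt3a-producing cells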
[7] = reduction of Shn3 3'UTR-driven luciferase in osteoblasts – cell-based, Clone20 osteoblasts, firefly luciferase, cherry-picked, dose response (AID 624132); format: functional;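 further: firefly luciferase luminescence from reporter carrying the Shn3 3'UTR in osteoblasts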
[8] = MIN6 cell viability loss – mouse insulinoma, cytotoxicity control, dose response (AID 2122); format: functional;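 further: confirmatory high-throughput counterscreen run to flag cytotoxic compounds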
[9] = decrease of insulin promoter-GFP reporter – imaging, high-content screening, mouse beta cells (AID 1628); format: functional; conditions: MIN6
[10] = loss of viability in HepG2 cells – cell-based, CellTiter-Glo, cherry-picked, cytotoxicity control for Shn3 inhibitor project, dose response (AID 624134); format: functional
[11] = tested on: Vero; assay: cells; format: functional, cell-based; conditions: Chlorocebus sabaeus
[12] = target: T1, Microphthalmia-associated transcription factor (Homo sapiens, UniProt O75030); assay: reducers of TRPM1 reporter luminescence, concentration series – cell-based, SK-MEL-5, cherry-picked, set 3, MITF inhibitor project, dose response (AID 493073); format: functional;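 further: SK-MEL-5 melanoma cells with luciferase driven by the MITF target TRPM1 promoter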
T1 sequence (O75030 whole entry): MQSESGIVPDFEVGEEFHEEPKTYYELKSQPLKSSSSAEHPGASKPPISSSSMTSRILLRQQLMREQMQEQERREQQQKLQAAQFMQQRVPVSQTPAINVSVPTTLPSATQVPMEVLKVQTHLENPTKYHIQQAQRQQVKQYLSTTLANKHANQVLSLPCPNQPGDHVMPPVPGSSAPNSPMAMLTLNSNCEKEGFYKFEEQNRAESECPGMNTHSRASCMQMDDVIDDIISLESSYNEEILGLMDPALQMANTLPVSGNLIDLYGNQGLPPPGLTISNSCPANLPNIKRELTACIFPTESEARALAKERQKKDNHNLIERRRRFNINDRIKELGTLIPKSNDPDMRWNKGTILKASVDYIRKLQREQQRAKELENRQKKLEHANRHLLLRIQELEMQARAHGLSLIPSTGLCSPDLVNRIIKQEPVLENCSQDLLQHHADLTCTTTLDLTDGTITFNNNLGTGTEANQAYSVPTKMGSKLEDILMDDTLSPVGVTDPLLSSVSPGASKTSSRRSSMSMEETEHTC

[13] = tested on: HEK293; assay: cells; conditions: Homo sapiens
[14] = tested on: HEK293; assay: cells; conditions: Homo sapiens; remark: listed apart in the source
[15] = Luminescence Cell-Based Dose Retest to Confirm Inhibitors of Cancer Stem Cells. [Related pubchem assays (depositor defined):AID2717, AID2721]; format: functional; conditions: Homo sapiens
[16] = tested on: Vero; assay: cells; format: functional; conditions: Chlorocebus sabaeus
[17] = tested on: A-375; assay: MITF: Counter assay: A375 proliferation Measured in Cell-Based System Using Plate Reader - 2084-03_Inhibitor_Dose_DryPowder_Activity. [Related pubchem assays (depositor defined):AID488944]; format: functional; conditions: Homo sapiens
[18] = target: Nonstructural protein 1 (Influenza A virus, UniProt Q194T2); format: functional, Influenza A virus (A/California/07/2009(H1N1))
[19] = target: T2, Apoptotic protease-activating factor 1 (Homo sapiens, UniProt O14727); format: functional
T2 sequence (O14727 whole entry): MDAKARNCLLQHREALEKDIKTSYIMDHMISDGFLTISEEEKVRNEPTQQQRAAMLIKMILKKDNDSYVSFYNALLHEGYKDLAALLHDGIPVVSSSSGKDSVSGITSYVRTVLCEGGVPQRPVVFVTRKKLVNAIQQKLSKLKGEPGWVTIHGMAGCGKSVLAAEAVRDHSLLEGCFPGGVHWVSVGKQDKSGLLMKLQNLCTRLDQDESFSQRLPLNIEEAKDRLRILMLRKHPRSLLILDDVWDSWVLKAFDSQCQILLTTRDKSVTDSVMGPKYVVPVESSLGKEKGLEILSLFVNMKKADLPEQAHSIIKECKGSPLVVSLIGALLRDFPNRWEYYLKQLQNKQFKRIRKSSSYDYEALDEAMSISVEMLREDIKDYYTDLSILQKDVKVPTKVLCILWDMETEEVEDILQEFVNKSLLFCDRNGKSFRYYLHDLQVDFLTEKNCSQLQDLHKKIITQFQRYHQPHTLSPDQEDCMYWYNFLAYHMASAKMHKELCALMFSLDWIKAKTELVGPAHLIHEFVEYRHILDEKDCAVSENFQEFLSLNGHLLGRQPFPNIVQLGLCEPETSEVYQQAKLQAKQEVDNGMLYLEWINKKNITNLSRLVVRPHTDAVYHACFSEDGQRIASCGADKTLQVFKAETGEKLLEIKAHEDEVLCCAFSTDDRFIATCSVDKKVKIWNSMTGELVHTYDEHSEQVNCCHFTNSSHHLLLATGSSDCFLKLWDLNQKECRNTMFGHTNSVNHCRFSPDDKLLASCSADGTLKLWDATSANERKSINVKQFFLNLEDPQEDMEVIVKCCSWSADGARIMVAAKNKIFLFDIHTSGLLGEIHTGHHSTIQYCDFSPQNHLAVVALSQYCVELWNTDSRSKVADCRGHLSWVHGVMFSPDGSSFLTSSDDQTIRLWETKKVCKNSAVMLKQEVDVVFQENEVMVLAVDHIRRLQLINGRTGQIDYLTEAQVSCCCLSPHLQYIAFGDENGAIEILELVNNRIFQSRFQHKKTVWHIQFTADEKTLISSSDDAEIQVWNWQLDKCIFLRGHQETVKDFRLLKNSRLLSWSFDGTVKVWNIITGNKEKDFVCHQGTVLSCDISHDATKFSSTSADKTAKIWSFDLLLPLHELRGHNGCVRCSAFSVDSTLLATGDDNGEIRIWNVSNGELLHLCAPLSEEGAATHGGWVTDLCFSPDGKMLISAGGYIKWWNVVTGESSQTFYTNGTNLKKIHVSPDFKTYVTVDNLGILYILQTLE

[20] = target: Glucose-6-phosphate 1-dehydrogenase (Homo sapiens, UniProt P11413); assay: inhibition of Homo sapiens G6PD, dose series – biochemical, fluorescence, selectivity assay for P. falciparum G6PD inhibitor project, dose response (AID 504792); format: functional
[21] = target: Eukaryotic translation initiation factor 4E (Mus musculus, UniProt P63073); assay: blockers of eIF4G binding by eIF4E – biochemical, TR-FRET, dose response (AID 855); format: functional;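 further: potency for disrupting eIF4E binding to eIF4GI seen as loss of FRET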
[22] = target: Genome polyprotein (dengue virus type 2, UniProt P29990); assay: flavivirus cap methylation enzyme inhibition – biochemical, confirmation dose response, primary screen (AID 588689); format: functional
[23] = tested on: Vero; assay: viability of Vero cells under compound – cytotoxicity control for flavivirus capping enzyme inhibitors (AID 588742); format: functional; conditions: Chlorocebus sabaeus
[24] = target: T3, Mannose-6-phosphate isomerase (Homo sapiens, UniProt P34949); assay: MPI inhibition at elevated mannose 6-phosphate – biochemical, fluorescence intensity, high mannose 6-phosphate, primary screen (AID 1220)
T3 sequence (P34949 whole entry): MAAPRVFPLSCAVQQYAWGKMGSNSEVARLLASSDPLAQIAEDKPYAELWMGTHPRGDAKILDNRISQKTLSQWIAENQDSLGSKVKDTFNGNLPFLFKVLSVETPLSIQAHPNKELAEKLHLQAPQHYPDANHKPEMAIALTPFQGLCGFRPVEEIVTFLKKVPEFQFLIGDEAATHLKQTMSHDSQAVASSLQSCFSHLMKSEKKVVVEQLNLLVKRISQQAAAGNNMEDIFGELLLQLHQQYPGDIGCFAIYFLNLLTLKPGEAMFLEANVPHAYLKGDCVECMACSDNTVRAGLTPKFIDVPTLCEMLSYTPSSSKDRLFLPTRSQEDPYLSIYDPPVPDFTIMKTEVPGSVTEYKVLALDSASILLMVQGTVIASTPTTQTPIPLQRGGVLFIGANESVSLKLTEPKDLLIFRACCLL

[25] = target: Induced myeloid leukemia cell differentiation protein Mcl-1 (Homo sapiens, UniProt Q07820); format: functional
Chain of Induced myeloid leukemia cell differentiation protein Mcl-1 (Q07820 whole entry): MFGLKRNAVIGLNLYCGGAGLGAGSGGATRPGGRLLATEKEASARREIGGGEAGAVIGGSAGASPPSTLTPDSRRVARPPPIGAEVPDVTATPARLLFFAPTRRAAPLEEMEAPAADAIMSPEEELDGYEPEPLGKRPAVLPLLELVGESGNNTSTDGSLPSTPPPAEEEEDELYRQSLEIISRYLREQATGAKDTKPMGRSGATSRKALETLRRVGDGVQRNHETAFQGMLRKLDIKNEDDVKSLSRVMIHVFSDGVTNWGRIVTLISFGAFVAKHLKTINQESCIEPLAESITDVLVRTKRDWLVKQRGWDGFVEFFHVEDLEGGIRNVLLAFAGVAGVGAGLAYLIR

Chain of Protein Wnt-3a (P27467 whole entry): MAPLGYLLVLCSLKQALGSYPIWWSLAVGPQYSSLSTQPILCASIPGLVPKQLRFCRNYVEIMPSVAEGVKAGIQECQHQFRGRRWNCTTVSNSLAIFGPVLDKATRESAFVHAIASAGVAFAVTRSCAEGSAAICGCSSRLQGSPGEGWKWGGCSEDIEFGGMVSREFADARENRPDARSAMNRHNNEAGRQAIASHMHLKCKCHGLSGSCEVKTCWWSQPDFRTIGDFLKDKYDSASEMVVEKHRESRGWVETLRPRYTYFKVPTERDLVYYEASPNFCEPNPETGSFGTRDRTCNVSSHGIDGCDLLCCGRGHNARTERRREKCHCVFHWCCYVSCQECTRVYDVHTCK
Chain of Steroidogenic factor 1 (Q13285 whole entry): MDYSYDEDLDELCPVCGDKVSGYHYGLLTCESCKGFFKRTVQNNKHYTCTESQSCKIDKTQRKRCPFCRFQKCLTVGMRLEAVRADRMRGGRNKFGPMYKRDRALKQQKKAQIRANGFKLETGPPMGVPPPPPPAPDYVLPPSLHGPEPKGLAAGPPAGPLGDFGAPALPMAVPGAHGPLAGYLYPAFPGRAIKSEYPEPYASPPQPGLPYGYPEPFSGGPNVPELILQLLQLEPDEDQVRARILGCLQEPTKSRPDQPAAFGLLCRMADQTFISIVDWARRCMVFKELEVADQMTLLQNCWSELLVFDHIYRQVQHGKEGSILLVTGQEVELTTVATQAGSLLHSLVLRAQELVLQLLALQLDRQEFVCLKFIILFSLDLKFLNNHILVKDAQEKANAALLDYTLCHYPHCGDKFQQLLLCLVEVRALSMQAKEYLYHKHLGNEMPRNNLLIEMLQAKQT
Chain of Nuclear receptor subfamily 5 group A member 2 (O00482 whole entry): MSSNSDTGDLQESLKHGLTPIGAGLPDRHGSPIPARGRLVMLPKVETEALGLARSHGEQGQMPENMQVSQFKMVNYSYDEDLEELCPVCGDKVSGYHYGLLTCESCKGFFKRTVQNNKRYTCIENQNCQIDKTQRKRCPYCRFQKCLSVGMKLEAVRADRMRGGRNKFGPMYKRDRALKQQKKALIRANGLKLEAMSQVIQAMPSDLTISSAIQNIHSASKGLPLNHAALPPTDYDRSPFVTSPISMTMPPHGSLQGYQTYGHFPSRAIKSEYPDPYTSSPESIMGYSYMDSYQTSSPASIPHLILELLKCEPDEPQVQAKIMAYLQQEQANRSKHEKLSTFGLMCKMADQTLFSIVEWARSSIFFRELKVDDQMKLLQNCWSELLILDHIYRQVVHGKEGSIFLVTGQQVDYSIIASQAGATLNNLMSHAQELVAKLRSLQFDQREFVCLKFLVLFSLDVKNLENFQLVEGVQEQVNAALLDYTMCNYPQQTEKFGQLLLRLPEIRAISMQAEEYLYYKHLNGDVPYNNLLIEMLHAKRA
Chain of Nonstructural protein 1 (Q194T2 whole entry): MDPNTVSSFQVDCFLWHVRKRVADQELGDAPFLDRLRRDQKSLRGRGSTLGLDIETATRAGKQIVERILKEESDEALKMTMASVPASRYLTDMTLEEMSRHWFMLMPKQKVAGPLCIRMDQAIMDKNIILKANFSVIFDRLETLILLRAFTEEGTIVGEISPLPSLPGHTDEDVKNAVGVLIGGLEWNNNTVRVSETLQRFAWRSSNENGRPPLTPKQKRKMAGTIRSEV
Chain of Genome polyprotein (P29990 2492-3391 limits assumed): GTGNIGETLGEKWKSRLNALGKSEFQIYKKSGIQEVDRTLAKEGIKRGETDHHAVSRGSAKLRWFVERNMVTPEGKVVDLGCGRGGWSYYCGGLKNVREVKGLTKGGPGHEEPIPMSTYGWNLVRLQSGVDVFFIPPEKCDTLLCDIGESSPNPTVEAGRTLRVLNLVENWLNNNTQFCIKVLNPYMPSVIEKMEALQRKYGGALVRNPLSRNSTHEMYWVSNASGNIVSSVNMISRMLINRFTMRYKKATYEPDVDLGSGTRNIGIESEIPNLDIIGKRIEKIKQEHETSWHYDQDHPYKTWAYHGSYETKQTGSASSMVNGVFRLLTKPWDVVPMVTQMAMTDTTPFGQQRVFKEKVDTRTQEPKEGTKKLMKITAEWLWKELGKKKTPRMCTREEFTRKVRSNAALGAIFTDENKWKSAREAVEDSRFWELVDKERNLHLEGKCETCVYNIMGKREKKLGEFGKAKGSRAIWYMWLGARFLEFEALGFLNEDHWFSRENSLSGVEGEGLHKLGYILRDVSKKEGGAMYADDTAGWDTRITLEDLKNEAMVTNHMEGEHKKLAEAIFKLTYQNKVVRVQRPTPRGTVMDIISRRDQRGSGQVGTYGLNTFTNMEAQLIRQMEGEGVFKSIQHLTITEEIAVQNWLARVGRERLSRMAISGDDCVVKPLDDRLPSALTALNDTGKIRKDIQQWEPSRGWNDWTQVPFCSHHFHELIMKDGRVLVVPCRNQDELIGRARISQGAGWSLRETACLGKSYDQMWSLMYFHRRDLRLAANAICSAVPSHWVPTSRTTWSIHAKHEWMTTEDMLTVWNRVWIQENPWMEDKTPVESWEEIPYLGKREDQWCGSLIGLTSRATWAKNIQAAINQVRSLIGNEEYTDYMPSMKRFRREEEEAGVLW
Chain of Glucose-6-phosphate 1-dehydrogenase (P11413 whole entry): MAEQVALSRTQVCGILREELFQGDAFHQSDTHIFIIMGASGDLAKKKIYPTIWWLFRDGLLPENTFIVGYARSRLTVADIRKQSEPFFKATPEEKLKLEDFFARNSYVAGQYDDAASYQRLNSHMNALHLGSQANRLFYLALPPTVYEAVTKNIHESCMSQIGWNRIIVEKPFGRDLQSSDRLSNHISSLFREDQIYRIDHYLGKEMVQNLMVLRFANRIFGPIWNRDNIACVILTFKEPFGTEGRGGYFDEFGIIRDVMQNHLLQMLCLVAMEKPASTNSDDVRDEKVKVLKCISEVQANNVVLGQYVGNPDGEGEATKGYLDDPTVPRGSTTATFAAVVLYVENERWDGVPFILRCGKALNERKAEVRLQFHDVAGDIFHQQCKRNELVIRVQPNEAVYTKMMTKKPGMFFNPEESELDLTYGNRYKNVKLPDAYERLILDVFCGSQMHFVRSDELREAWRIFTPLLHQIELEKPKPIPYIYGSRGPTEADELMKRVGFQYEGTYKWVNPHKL
Chain of Eukaryotic translation initiation factor 4E (P63073 whole entry): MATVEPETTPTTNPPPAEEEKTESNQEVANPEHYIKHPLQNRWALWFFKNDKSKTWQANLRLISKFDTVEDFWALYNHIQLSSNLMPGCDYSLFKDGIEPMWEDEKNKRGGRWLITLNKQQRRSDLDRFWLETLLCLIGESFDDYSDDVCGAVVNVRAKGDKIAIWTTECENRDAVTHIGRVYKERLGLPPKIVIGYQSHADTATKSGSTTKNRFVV

For `COc1cccc(NC(=O)c2oc3ccccc3c2NC(=O)C2CC2)c1`, the IC50 [1] was 35.9 µM (inactive), the IC50 [2] was 35.9 µM (inactive) and the IC50 [3] was 16 µM (inactive).

With `CCn1c(C)nc2cc(-c3nnc(-c4c(-c5ccccc5)noc4C)o3)ccc21` the AC50 [4] was 5.96 µM (active), the AC50 [5] was 5.72 µM (active) and the IC50 [6] was 2.59 µM (active). For the same compound, the AC50 [7] was 5.82 µM (active).

With `O=C(c1cc2sccc2n1Cc1ccccc1)N1CCN(c2nc3ccccc3s2)CC1` the AC50 [4] was 0.453 µM (active), the AC50 [5] was 3.56 µM (active) and the IC50 [6] was 2.68 µM (active). The IC50 [8] was 0.779 µM (active), the IC50 [9] was 0.735 µM (active) and the AC50 [10] was 2.92 µM (active). The AC50 [7] was 1.09 µM (active).

With `N#C/C(=C\C=C\c1ccccc1[N+](=O)[O-])C(=O)NC1CCCCC1` the IC50 [11] was 17 µM (active), the AC50 [12] was 7.8 µM (active) and the EC50 [13] was > 59.7 µM (inactive). For the same compound, the EC50 [14] was > 59.7 µM (inactive), the AC50 [15] was 5.33 µM (active) and the CC50 [16] was > 25 µM (active). For the same compound, the AC50 [17] was 25.9 µM (active).

With `CCOc1cc(CNc2ccc(N3CCCC3)cc2)cc(Cl)c1OC` the IC50 [18] was 20.7 µM (active), the IC50 [19] was > 100 µM (inactive) and the IC50 [20] was > 80 µM (inactive). For the same compound, the IC50 [21] was > 64 µM (inactive), the IC50 [22] was 48.2 µM (active) and the CC50 [23] was > 40 µM (active). The IC50 [24] was 8.91 µM (active) and the IC50 [25] was 2.43 µM (not active).
